According to BigSolDB 2.1:

Nc1n[nH]c(=S)s1
solubility (mole fraction)
Conditions	283.15 K	288.15 K	293.15 K	298.15 K	303.15 K	308.15 K	313.15 K	318.15 K	323.15 K
in acetone	0.0101	0.0107	0.0114	0.0121	0.0129	0.0135	0.0142	0.015	0.0158
in cyclohexanone	0.0325	0.0343	0.036	0.0378	0.0397	0.0415	0.0433	0.0449	0.0467
in ethanol	0.00402	0.00442	0.00486	0.00526	0.00578	0.00629	0.00684	0.00741	0.008
in ethyl acetate	0.00203	0.00222	0.00242	0.00263	0.0028	0.00301	0.00326	0.0035	0.00374
in isobutanol	0.00148	0.0017	0.00197	0.00225	0.00257	0.00289	0.00333	0.00376	0.0042
in isopropanol	0.00224	0.00259	0.00302	0.00351	0.00397	0.00447	0.00501	0.0057	0.0065
in methanol	0.00454	0.00505	0.00553	0.00617	0.00676	0.00737	0.00806	0.00882	0.00961
in methyl acetate	0.0022	0.00239	0.0026	0.00285	0.00308	0.00332	0.00361	0.00386	0.00411
in n-butanol	0.00216	0.00243	0.00284	0.00327	0.00372	0.00427	0.0048	0.00546	0.0061
in n-butyl acetate	0.00158	0.00172	0.00189	0.00205	0.00221	0.0024	0.0026	0.00283	0.00304
in n-propanol	0.0022	0.00259	0.00293	0.00341	0.00387	0.0043	0.00489	0.00561	0.00629
in n-propyl acetate	0.00183	0.00197	0.00212	0.00228	0.00243	0.00259	0.00278	0.00295	0.00316
in sec-butanol	0.00247	0.0029	0.00337	0.00397	0.00451	0.0051	0.00584	0.00667	0.00768
